From US20240208968A1, “ALPHA V BETA 6 AND ALPHA V BETA 1 INTEGRIN INHIBITORS AND USES THEREOF” (DiCE Molecules SV, Inc., priority 2021, published 2024)

Columns and labels:
[1] = biological target: αvβ1 (Homo sapiens, UniProt P05556+P06756); experiment: Solid Phase Integrin αvβ1 Assay; type: binding
Summary of the method: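 Compound competes for αvβ1 binding to immobilized TGFb1-LAP (1 µg/mL coat) in Mn2+ (1 mM MnCl2), 2% BSA binding buffer over 90 min at room temperature, integrin added at 0.2 µg/mL. Read-out: streptavidin-HRP/TMB; IC50 from Levenberg-Marquardt four-parameter fit.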

[2] = biological target: αvβ6 (Homo sapiens, UniProt P06756+P18564); experiment: Solid Phase Integrin αvβ6 Assay; type: binding
Chain of αvβ6 (P06756 31-992 limits assumed): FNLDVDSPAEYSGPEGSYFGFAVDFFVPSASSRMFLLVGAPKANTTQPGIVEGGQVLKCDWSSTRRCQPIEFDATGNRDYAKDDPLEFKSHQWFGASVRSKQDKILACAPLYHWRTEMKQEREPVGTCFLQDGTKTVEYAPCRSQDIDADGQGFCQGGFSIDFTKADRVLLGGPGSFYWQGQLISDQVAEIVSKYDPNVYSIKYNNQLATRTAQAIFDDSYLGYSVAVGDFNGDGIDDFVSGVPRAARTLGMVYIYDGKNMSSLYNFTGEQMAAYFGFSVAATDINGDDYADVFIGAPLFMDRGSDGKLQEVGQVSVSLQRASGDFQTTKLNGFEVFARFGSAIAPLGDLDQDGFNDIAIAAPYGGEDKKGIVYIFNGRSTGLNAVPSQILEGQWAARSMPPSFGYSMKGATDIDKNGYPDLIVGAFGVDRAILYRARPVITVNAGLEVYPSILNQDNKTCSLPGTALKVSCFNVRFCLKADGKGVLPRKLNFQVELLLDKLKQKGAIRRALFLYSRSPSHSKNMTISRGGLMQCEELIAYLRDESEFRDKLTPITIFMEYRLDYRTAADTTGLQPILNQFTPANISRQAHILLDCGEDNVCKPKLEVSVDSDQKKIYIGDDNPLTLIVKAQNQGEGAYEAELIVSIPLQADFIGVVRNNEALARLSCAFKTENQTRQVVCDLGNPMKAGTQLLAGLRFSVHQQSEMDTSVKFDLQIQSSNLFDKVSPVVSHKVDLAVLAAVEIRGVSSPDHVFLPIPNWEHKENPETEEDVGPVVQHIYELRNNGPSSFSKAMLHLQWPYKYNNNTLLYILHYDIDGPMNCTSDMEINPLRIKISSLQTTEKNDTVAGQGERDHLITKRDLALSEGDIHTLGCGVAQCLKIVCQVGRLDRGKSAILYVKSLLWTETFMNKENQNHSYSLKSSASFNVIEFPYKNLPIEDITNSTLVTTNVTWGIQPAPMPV
Chain of αvβ6 (P18564 22-707 limits assumed): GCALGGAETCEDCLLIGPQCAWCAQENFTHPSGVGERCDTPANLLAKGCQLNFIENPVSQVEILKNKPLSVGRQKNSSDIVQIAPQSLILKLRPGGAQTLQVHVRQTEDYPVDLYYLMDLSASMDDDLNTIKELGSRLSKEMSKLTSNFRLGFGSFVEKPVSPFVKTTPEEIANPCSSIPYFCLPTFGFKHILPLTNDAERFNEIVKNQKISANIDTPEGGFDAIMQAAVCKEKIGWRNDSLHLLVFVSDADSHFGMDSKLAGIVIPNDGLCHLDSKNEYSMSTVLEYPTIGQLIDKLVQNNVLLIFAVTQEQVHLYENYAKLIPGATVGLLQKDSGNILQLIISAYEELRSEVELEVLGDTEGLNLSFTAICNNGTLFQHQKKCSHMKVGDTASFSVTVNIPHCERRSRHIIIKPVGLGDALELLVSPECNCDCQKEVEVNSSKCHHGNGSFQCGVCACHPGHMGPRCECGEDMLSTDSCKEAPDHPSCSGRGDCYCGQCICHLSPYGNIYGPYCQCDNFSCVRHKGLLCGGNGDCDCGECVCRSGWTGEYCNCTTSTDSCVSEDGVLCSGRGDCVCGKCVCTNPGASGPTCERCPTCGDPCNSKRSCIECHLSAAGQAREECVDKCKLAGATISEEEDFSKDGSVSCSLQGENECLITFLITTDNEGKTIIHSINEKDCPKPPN
Summary of the method: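 Inhibition of αvβ6 binding to immobilized recombinant TGFb1-LAP (1 μg/mL coating), 1 h at room temperature with 1 mM MnCl2 in BSA/TBST buffer, integrin diluted to 0.2 μg/mL before addition. Streptavidin-HRP/TMB read-out; four-parameter logistic fitting gave IC50.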

Chain of αvβ1 (P06756 31-992 limits assumed): as the sequence (P06756 31-992 limits assumed) above
Chain of αvβ1 (P05556 21-728 limits assumed): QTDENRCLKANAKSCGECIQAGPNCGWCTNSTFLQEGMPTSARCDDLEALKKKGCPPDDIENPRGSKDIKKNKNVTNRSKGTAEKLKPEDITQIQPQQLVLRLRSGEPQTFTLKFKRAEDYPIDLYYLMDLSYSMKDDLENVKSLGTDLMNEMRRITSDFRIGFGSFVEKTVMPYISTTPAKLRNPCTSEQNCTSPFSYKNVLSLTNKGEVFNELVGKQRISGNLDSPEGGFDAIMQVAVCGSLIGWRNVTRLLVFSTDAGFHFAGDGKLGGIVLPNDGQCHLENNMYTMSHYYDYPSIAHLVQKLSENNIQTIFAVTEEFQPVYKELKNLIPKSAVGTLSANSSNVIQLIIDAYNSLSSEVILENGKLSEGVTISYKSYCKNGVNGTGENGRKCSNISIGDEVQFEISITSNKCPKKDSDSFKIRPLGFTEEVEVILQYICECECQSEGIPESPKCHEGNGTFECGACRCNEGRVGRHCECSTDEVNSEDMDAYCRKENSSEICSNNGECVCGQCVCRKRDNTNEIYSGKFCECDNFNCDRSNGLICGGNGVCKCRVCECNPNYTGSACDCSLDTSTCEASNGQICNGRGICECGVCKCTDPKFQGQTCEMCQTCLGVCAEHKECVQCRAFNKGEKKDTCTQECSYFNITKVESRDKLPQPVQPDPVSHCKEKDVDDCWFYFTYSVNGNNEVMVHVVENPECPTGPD

IC50 [1]	IC50 [2]	SMILES
100 to 1000 nM	> 1000 nM	O=C(NC[C@@H](C(=O)O)c1cccc2cnn([C@@H]3CCOC3)c12)[C@@H]1CCCN(CCCc2ccc3c(n2)NCCC3)C1 [Compound 322]
< 100 nM	< 100 nM	O=C(NC[C@H](C(=O)O)c1cccc2cnn([C@@H]3CCOC3)c12)[C@@H]1CCCN(CCCc2ccc3c(n2)NCCC3)C1 [Compound 323]
< 100 nM	> 1000 nM	O=C(NC[C@@H](C(=O)O)c1cnc2[nH]ccc2c1)[C@@H]1CCCN(CCCc2ccc3c(n2)NCCC3)C1 [Compound 324]
< 100 nM	< 100 nM	O=C(NC[C@H](C(=O)O)c1cnc2[nH]ccc2c1)[C@@H]1CCCN(CCCc2ccc3c(n2)NCCC3)C1 [Compound 325]
< 100 nM	< 100 nM	O=C(NC[C@@H](C(=O)O)c1cnc2c(ccn2CC2CC2)c1)[C@@H]1CCCN(CCCc2ccc3c(n2)NCCC3)C1 [Compound 326]
< 100 nM	< 100 nM	O=C(NC[C@H](C(=O)O)c1cnc2c(ccn2CC2CC2)c1)[C@@H]1CCCN(CCCc2ccc3c(n2)NCCC3)C1 [Compound 327]
100 to 1000 nM	100 to 1000 nM	O=C(O)C[C@@H](NC(=O)[C@@H]1CCCN(CCCc2ccc3c(n2)NCCC3)C1)c1ccc2c(c1)C1(CC2)CC1 [Compound 328]
> 1000 nM	> 1000 nM	O=C(O)[C@H](CCO[C@@H]1CCCN(CCCc2ccc3c(n2)NCCC3)C1)c1cccc(-c2ccccc2)c1 [Compound 329]
> 1000 nM	< 100 nM	O=C(O)[C@@H](CCO[C@@H]1CCCN(CCCc2ccc3c(n2)NCCC3)C1)c1cccc(-c2ccccc2)c1 [Compound 330]
< 100 nM	< 100 nM	O=C(O)[C@@H](CCO[C@@H]1CCCN(CCCc2ccc3c(n2)NCCC3)C1)NC(=O)C12CCC(CC1)CC2 [Compound 331]
> 1000 nM	100 to 1000 nM	O=C(O)[C@@H](CCO[C@@H]1CCCN(CCCc2ccc3c(n2)NCCC3)C1)Nc1ncnc2ccccc12 [Compound 332]
100 to 1000 nM	100 to 1000 nM	O=C(O)[C@H](CCO[C@@H]1CCCN(CCCc2ccc3c(n2)NCCC3)C1)NC(=O)C12CCC(CC1)CC2 [Compound 333]
< 100 nM	< 100 nM	O=C(O)[C@H](CCO[C@@H]1CCCN(CCCc2ccc3c(n2)NCCC3)C1)Nc1ncnc2ccccc12 [Compound 334]
100 to 1000 nM	100 to 1000 nM	O=C(O)CC(CO[C@@H]1CCCN(CCc2ccc3c(n2)NCCC3)C1)c1ccccc1 (stereo partly shown) [Compound 335]
> 1000 nM	100 to 1000 nM	O=C(O)CC(CO[C@@H]1CCCN(Cc2ccc3c(n2)NCCC3)C1)c1ccccc1 (stereo partly shown) [Compound 336]
100 to 1000 nM	100 to 1000 nM	O=C(O)CC(CO[C@H]1CCCN(CCCc2ccc3c(n2)NCCC3)C1)c1ccccc1 (stereo partly shown) [Compound 337]
< 100 nM	< 100 nM	O=C(N[C@@H](CNC(=O)[C@@H]1CCCN(CCCc2ccc3c(n2)NCCC3)C1)C(=O)O)C1CC2CCC1CC2 (stereo partly shown) [Compound 338]
< 100 nM	< 100 nM	O=C(O)CC(NC(=O)[C@@H]1CCCN(CCCc2ccc3c(n2)NCCC3)C1)c1cccc2ccccc12 (stereo partly shown) [Compound 339]
100 to 1000 nM	100 to 1000 nM	O=C(NC[C@@H](C(=O)O)c1ccccc1-c1ccccc1)[C@@H]1CCCN(CCCc2ccc3c(n2)NCCC3)C1 [Compound 340]
> 1000 nM	> 1000 nM	O=C(NC[C@H](C(=O)O)c1ccccc1-c1ccccc1)[C@@H]1CCCN(CCCc2ccc3c(n2)NCCC3)C1 [Compound 341]
< 100 nM	< 100 nM	O=C(NC[C@H](C(=O)O)c1ccc(-c2ccccc2)cc1)[C@@H]1CCCN(CCCc2ccc3c(n2)NCCC3)C1 [Compound 342]
< 100 nM	< 100 nM	O=C(O)C[C@@H](NC(=O)[C@@H]1CCCN(CCCc2ccc3c(n2)NCCC3)C1)c1cccc(C2CC2)c1F [Compound 344]
> 1000 nM	> 1000 nM	O=C(O)C[C@@H](NC(=O)[C@@H]1CCCN(CCCc2ccc3c(n2)NCCC3)C1)c1ccccc1C1CC1 [Compound 345]
